The experiment deals with A375 cells. In words: Confocal microscopy, internalization of fluorescence-labeled peptide. Type of experiment: cell-based, human. The procedure: The A375 cell line A375 (ECACC, 88113005) is a human malignant melanoma derived from patient material, and was purchased from Public Health England (PHE Culture Collections, Porton Down, Salisbury, UK). Cells were maintained as monolayer cultures in high glucose […] DMEM supplemented with 10% FBS and 1% L-glutamine, but not as antibiotics (complete media). The cell line was grown in a humidified 5% CO2 atmosphere at 37° C., and was regularly tested for the presence of mycoplasma with MycoAlert (Lonza).
Fixed cells, fluorescence-labeled peptide—Subconfluential A375 cells were seeded at 8,000 cells/well as above, and transfected on the second day using the Lipofectamine LTX with Plus transfection reagents (Invitrogen) following the manufacturer's protocol. The mitochondria were labeled using the pDsRed2-Mito, and the nucleus was labeled using the GFP-Histon2B plasmid (Imaging Platform, University of Tromsø). A day after transfection, cells were washed twice with serum-free RPMI, and treated at different concentration and incubation periods with LTX-315 Pacific Blue or LTX-328 Pacific Blue. […] Control cells were treated with unlabeled LTX-315 and also with serum-free RPMI only. After incubation, cells were fixed with 4% paraformaldehyde in PBS, and the wells were covered with Prolong Gold antifade (Invitrogen). Cells were further analyzed by use of a Leica TCS SP5 confocal microscope, with a […] objective. Pacific Blue, GFP and Ds Red were excited using UV, with 488 and 561 lasers, and fluorescence channels were sequentially detected using the following band passes: UV: 420-480 nm (with attenuation), 488: 501-550 nm and 561: 576-676 nm.

Here are results for one substance from US20250002854A1, “METHODS OF GENERATING POPULATIONS OF TUMOUR-INFILTRATING T CELLS” (LYTIX BIOPHARMA AS, priority 2016, published 2025).

Square brackets hold non-standard residues; d marks the D form. Ends that are not written are not given here. Dip = N[C@H](C(=O)O)C(c1ccccc1)c1ccccc1

Turning to “KAQ[Dip]QKQAW-NH2 [LTX-328, reference compound]”, under “3 μM, 60 min”, the internalization of peptide result is on record as “not internalized”. In addition, the “internalization of Pacific Blue-labelled peptide” value (A375 cells, 3 μM and 1.5 μM) is recorded as “did not demonstrate any internalization”.
